The values that follow are results of earlier work, collected in patent US6172066A, “Dihydropyrimidines and uses thereof” (Synaptic Pharmaceutical Corporation, priority 1997, dated 2001).

The conditions of series [1]: cited from earlier work.
For series [2] the following is noted: in addition to its antihypertensive effects; cited from earlier work.

Like-named read-outs stand apart in the source and are kept apart here.

Consider `COc1cc2nc(N3CCN(C(=O)C4CCCO4)CC3)nc(N)c2cc1OC` (stereo not shown) [terazosin], for which, in series [1] (patients with BPH), the “side effects in BPH treatment” value is recorded as “untoward side effects” and the “usefulness in treating BPH” value is recorded as “useful for treating BPH”.
As to `COc1cc2nc(N3CCN(C(=O)c4ccco4)CC3)nc(N)c2cc1OC` [prazosin], in series [1] (in vivo), the “side effects in BPH treatment” value is on record as “untoward side effects”. Moreover, the “usefulness in treating BPH” value in series [1] (patients with BPH) is listed as “useful for treating BPH”.
For the molecule `CC(COc1ccccc1)N(CCCl)Cc1ccccc1` (stereo not shown) [phenoxybenzamine], in series [1] (patients with BPH), the “side effects in BPH treatment” value was “significant side effects such as dizziness and asthenia”; the “usefulness in treating BPH” value is listed as “useful in relieving the symptoms of BPH”.
As to `Clc1cccc(Cl)c1N=C1NCCN1` [clonidine], the “side effects of clonidine” value in series [2] was “dry mouth and sedation”.
